From publication PMC4593063 (Bioorganic & medicinal chemistry letters, 2015)

Key:
[1] = 19F NMR hydration study in aqueous solution; format: physicochemical; conditions: pH 7.7, 24 h
[2] = evaporative weight loss at room temperature; format: physicochemical; conditions: open 1 dram vial, fume hood
An. gambiae [3] = test: injection toxicity; format: in vivo, Anopheles gambiae; conditions: injection into mosquito thorax
WT AgAChE = WT AgAChE (Anopheles gambiae, UniProt Q869C3); test: modified Ellman assay, WT AgAChE inhibition; format: biochemical
G119S AgAChE [4] = target: G119S AgAChE (Anopheles gambiae, UniProt Q869C3, G280S); format: biochemical; conditions: 60 min incubation
G119S AgAChE [5] = format: biochemical, Anopheles gambiae; conditions: 5g: 60 min incubation; dichlorvos: time not stated
[6] = test system: susceptible (G3) strain adult An. gambiae; test: tarsal contact toxicity, WHO treated paper protocol; format: in vivo, Anopheles gambiae; conditions: 40% mortality at 1000 μg/mL vs propoxur LC50 39 μg/mL
An. gambiae [7] = test: fumigation toxicity assay; set-up: species or system Anopheles gambiae; conditions: in vivo

Row | Compound | % hydrated (19F NMR) [1] | % mass lost by evaporation ([2]; 1 day) | % mass lost by evaporation ([2]; 6 days) | % mass lost by evaporation ([2]; 12 days) | Injection mortality at 50 ng/insect (An. gambiae [3]) | further results
1 | CC(C)(C)c1cccc(C(=O)C(F)(F)F)c1 [Compound 5c] | 88% | – | – | – | – | –
2 | CNC(=O)Oc1ccccc1OC(C)C [propoxur] | – | 0 ±1% | 0 ± 1% | 1 ± 1% | – | Injection LD50 (An. gambiae [3]; 95% confidence interval in parenthesis): 0.24 (0.20–0.34) ng/insect
3 | CC(C)Cn1cc(C(=O)C(F)F)cn1 [Compound 9i] | 22% | – | – | – | – | –
4 | CCC(CC)n1cc(C(=O)C(F)F)cn1 [Compound 9g] | – | – | – | – | 65 ± 4% | WT AgAChE inhibition (IC50) as summarised in text (WT AgAChE; incubation time not specified): single digit nanomolar; G119S AgAChE IC50 fold lower than that of dichlorvos (G119S AgAChE [4]): 2 fold; G119S AgAChE IC50 fold lower than that of trifluoromethyl ketone 5g (G119S AgAChE [4]): 13 fold
5 | CCC(CC)n1cc(C(=O)C(F)(F)F)cn1 [Compound 5g] | 67% | 9 ± 1% | 33 ± 1% | 68 ± 1% | 83 ± 6% | potency at WT AgAChE fold greater than dichlorvos (WT AgAChE): 100 fold; ratio of G119S and WT AgAChE IC50 values (G119S AgAChE [5]): roughly 2,500 fold; tarsal contact toxicity fold lower relative to propoxur [6]: ~ 25 fold; % mass lost by evaporation ([2]; 28 days): 99 ± 1%; fumigation toxicity fold less than dichlorvos (An. gambiae [7]): > 100 fold
6 | COP(=O)(OC)OC=C(Cl)Cl [dichlorvos] | – | 2 ± 1% | 16 ± 1% | 32 ± 1% | – | % mass lost by evaporation ([2]; 28 days): 51 ± 1%
7 | CC(C)Cn1cc(C(=O)CF)cn1 [Compound 10i] | < 5% | – | – | – | – | –
8 | CCC(CC)n1cc(C(=O)CF)cn1 [Compound 10g] | – | – | – | – | 21 ± 8% | WT AgAChE IC50 fold higher than that of propoxur (WT AgAChE; 10 minute incubation time): roughly 2 fold
